From patent publication US7157482B2, “Antibacterial 1,3-oxazolidin-2-one derivatives” (AstraZeneca AB, priority 2003, dated 2007)
Values after ≈ are worked out from the molar mass of the structure shown.

How the values were obtained:
[1] = test system: Streptococcus pneumoniae; experiment: MIC, agar-dilution, Streptococcus pneumoniae; format: cell-based; details: agar with 5% defibrinated horse blood, 10^4 CFU/spot, 37° C., 5% carbon dioxide, 48 hours
Experimental: (§1) The following results were obtained on a standard in-vitro test system. The activity is described in terms of the minimum inhibitory concentration (MIC) determined by the agar-dilution technique with an inoculum size of 10^4 CFU/spot. Typically, compounds are active in the range 0.01 to 256 μg/ml.
(§2) Streptococci and enterococci were tested on agar supplemented with 5% defibrinated horse blood, an inoculum of 10^4 CFU/spot and an incubation temperature of 37° C. in an atmosphere of 5% carbon dioxide for 48 hours—blood is required for the growth of some of the test organisms. Fastidious Gram negative organisms were tested in Mueller-Hinton broth, supplemented with hemin and NAD, grown aerobically for 24 hours at 37° C., and with an innoculum of 5×10^4 CFU/well.

[2] = test system: Enterococcus faecium; experiment: MIC, agar-dilution, Enterococcus faecium; format: cell-based; details: agar with 5% defibrinated horse blood, 10^4 CFU/spot, 37° C., 5% carbon dioxide, 48 hours
Experimental: as §1, §2

[3] = target: T1, MAO-A (Homo sapiens, UniProt P21397); experiment: MAO-A in-vitro assay, human liver enzyme expressed in yeast; format: biochemical
T1 construct: made in house; host or cells: yeast
T1 sequence (P21397 1-527): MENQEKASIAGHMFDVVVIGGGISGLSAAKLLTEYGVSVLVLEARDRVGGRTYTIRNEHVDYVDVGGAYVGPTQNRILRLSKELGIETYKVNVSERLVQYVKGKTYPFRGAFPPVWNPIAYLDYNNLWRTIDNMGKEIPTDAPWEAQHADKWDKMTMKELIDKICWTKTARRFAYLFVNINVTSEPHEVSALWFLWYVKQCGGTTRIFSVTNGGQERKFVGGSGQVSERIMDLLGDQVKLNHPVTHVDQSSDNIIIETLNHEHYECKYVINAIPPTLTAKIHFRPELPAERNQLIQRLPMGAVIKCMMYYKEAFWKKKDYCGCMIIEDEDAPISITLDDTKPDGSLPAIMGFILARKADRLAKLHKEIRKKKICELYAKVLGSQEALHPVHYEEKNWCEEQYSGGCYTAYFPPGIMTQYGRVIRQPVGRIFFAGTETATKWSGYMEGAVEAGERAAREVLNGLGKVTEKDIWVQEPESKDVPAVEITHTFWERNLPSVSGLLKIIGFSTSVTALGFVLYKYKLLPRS
Experimental: The activity of the compounds of the invention against MAO-A was tested using a standard in-vitro assay based on human liver enzyme expressed in yeast as described in Biochem. Biophys. Res. Commun. 1991, 181, 1084–1088.

[4] = test system: Moraxella catarrhalis; experiment: MIC, Moraxella catarrhalis; format: cell-based; details: fastidious Gram negative: Mueller-Hinton broth with hemin and NAD, 24 hours, 37° C., 5×10^4 CFU/well
Experimental: as §1, §2

[5] = test system: Staphylococcus aureus MSQS (methicillin sensitive and quinolone sensitive); experiment: MIC, agar-dilution, Staphylococcus aureus MSQS; format: cell-based; details: S. aureus MSQS, inoculum 10^4 CFU/spot, 37° C., 24 hours
Experimental: as §1
(§3) Staphylococci were tested on agar, using an inoculum of 10^4 CFU/spot and an incubation temperature of 37° C. for 24 hours—standard test conditions for the expression of methicillin resistance.

[6] = test system: Staphylococcus aureus MRQR (methicillin resistant and quinolone resistant); experiment: MIC, agar-dilution, Staphylococcus aureus MRQR; format: cell-based; details: S. aureus MRQR, inoculum 10^4 CFU/spot, 37° C., 24 hours
Experimental: as §1, §3

| MIC [1] [µg/mL] | MIC [2] [µg/mL] | Ki [3] [µM] | MIC [4] [µg/mL] | MIC [5] [µg/mL] | MIC [6] [µg/mL] | SMILES |
| --- | --- | --- | --- | --- | --- | --- |
| 0.5 (≈ 1.4 µM) | 1 (≈ 2.8 µM) | 58.8 | 1 (≈ 2.8 µM) | 4 (≈ 11.2 µM) | 1 (≈ 2.8 µM) | Cc1cn(C[C@H]2CN(c3ccc(-c4cc(C)no4)c(F)c3)C(=O)O2)nn1 [Example 1, (5R)-3-[3-Fluoro-4-(3-methylisoxazol-5-yl)phenyl]-5-[(4-methyl-1H-1,2,3-triazol-1-yl)methyl]-1,3-oxazolidin-2-one] |
| – | – | 6.99 | – | – | – | Cc1cc(-c2ccc(N3C[C@H](Cn4ccnn4)OC3=O)cc2F)on1 [unsubstituted triazole equivalent, reference compound] |
